{"source": "patent US20090041719A1", "about": "“Method for screening therapeutic agent for glomerular disorder” (priority 2006, published 2009)", "test_system": "puromycin-induced acute nephrosis model", "assay": "Puromycin-induced acute nephrosis model: urinary albumin excretion", "type": "in vivo, SD (Sprague-Dawley) rat", "description": "It is known that a single intravenous dose of 50 mg/kg of puromycin to a 5-week-old SD (Sprague-Dawley) male rat damages the glomerular epithelial cells, causing severe proteinuria peaking from day 6 to day 14 and gradually decreasing thereafter, and again showing tubular proteinuria (see J. R. Diamond, and M. J. Karnovsky: Focal and segmental glomerulosclerosis following a single intravenous dose of puromycin aminonucleoside, Am. J. Pathol; 1986; 122; 481-487) (hereinafter, this model will be referred to as puromycin-induced acute nephrosis model). Using the above puromycin-induced acute nephrosis model as a model of glomerular lesions, the combinational effect of interferon γ and the composition for preventing, ameliorating, or treating glomerular lesions or disease of kidney was examined. To a 5-week-old SD (Sprague-Dawley) male rat, 30 mg/kg/day of said composition (6-2) was subcutaneously administered every day from five days before the administration of puromycin, and at the same time, 0.25 ml (2.3×10^4U) of rat recombinant interferon γ (by PeproTeck, final concentration: 9.09 μg/ml) was intraperitoneally administered on alternate days from five days before the administration of puromycin, followed by a single intravenous dose of 50 mg/kg of puromycin. Even after the administration of puromycin, the same amount of the composition (6-2) and the rat recombinant interferon γ were continuously administered every day and on alternate days respectively. On days 6, 12, and 19 after the administration of puromycin, 24-hour urine collection was performed to measure the amount of rat urinary albumin excretion by ELIZA method. At the same time, the urinary creatinine concentration was also measured by enzyme method. As indexes of glomerular epithelial damage, albumin excretion and the ratio of urinary albumin excretion to urinary creatinine were compared.", "note": "Where “and” joins values, the source holds several entries; their conditions need not be identical. Identical values can stand only once.", "data": [{"smiles": "O=C1CCC(F)(C(=O)OCc2ccccc2)O1", "note": "(stereo not drawn) [Compound (6-2)]", "values": [{"measurement": "Albumin Excretion, Day 6", "setting": "group average", "value": 98.3, "unit": "mg/day"}, {"measurement": "Albumin Excretion, Day 12", "setting": "group average", "value": 182.6, "unit": "mg/day"}, {"measurement": "Albumin Excretion, Day 19", "setting": "group average", "value": 101.0, "unit": "mg/day"}, {"measurement": "Urinary Albumin Excretion/Urinary Creatinine, Day 6", "setting": "group average", "value": "16.7 1/Cr"}, {"measurement": "Urinary Albumin Excretion/Urinary Creatinine, Day 12", "setting": "group average", "value": "29.1 1/Cr"}, {"measurement": "Urinary Albumin Excretion/Urinary Creatinine, Day 19", "setting": "group average", "value": "15.8 1/Cr"}, {"measurement": "Urinary Albumin Excretion/Urinary Creatinine, Day 6", "setting": "individual animal", "value": "12.1 1/Cr and 21.2 1/Cr"}, {"measurement": "Urinary Albumin Excretion/Urinary Creatinine, Day 12", "setting": "individual animal", "value": "22.3 1/Cr and 35.8 1/Cr"}, {"measurement": "Urinary Albumin Excretion/Urinary Creatinine, Day 19", "setting": "individual animal", "value": "11.0 1/Cr and 20.5 1/Cr"}, {"measurement": "Albumin Excretion, Day 6", "setting": "individual animal, 24-hour urine, day 6 after puromycin, compound 30 mg/kg/day s.c., 30 mg/kg/day", "value": "80.7 mg/day and 115.9 mg/day"}, {"measurement": "Albumin Excretion, Day 12", "setting": "individual animal, 24-hour urine, day 12 after puromycin, compound 30 mg/kg/day s.c., 30 mg/kg/day", "value": "136.0 mg/day and 229.1 mg/day"}, {"measurement": "Albumin Excretion, Day 19", "setting": "individual animal, 24-hour urine, day 19 after puromycin, compound 30 mg/kg/day s.c., 30 mg/kg/day", "value": "73.4 mg/day and 128.6 mg/day"}]}]}
